{
  "source": "paper PMC5515969",
  "about": "“Effects of 31 FDA approved small-molecule kinase inhibitors on isolated rat liver mitochondria” (Archives of Toxicology, 2016); for RCC V at 5XCmax: key: 0 indicates that the drug had no effects (negative); for State 3 respiration driven by succinate at 10XCmax: key: 0 indicates that the drug had no effects (negative); for State 3 respiration driven by succinate at 1XCmax: key: 0 indicates that the drug had no effects (negative)",
  "key": {"RCC II": {"biological_target": "T1, RCC II (Rattus norvegicus, UniProt P21913+Q641Z9+Q6PCT8+Q920L2)", "T1 construct": "Submitochondrial particles were prepared by subjecting the intact mitochondria to three successive freeze–thaw cycles; from tissue; host or cells: rat liver mitochondria, used as submitochondrial particles", "T1 sequence (Q920L2 35-656)": "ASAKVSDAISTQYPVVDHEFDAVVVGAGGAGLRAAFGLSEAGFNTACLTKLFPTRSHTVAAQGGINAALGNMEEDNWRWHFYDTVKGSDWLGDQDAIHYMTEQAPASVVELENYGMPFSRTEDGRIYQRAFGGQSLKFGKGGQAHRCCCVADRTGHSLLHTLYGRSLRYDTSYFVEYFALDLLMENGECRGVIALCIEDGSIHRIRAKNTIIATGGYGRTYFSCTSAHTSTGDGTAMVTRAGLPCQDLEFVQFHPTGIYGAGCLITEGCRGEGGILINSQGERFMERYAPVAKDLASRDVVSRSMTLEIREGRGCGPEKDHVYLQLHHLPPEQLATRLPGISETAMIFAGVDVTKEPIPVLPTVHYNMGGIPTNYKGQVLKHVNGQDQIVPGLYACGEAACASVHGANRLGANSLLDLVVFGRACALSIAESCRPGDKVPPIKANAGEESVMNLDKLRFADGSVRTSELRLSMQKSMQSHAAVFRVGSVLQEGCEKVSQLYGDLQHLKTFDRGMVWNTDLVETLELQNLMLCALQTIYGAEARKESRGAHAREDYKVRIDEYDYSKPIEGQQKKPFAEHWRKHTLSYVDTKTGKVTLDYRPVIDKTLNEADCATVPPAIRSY", "T1 sequence (P21913 31-282)": "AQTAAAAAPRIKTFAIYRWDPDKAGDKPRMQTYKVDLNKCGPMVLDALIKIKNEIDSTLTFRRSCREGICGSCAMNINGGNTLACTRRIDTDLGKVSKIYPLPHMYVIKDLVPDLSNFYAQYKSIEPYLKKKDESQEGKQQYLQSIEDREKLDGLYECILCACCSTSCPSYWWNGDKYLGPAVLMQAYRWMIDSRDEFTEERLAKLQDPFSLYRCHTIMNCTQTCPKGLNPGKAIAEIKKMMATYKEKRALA", "T1 sequence (Q641Z9 1-169)": "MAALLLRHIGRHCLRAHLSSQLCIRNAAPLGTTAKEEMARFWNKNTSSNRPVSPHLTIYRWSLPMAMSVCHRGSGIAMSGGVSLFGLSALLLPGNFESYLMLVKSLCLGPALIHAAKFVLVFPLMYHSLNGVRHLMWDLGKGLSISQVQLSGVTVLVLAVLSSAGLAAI", "T1 sequence (Q6PCT8 57-159)": "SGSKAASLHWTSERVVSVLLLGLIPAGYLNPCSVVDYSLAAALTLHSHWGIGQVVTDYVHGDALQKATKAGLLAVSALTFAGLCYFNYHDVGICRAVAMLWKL", "assay": "RCC II activity in submitochondrial particles", "assay_type": "biochemical", "design": "key: activity relative to DMSO-treated controls (control set as 1 = 100%)", "settings": "DMSO treated samples set as 1", "method_in_brief": "(§1)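 Inhibitors preincubated 15 min with submitochondrial particles (1 mg/ml) before activity readout. RCC I (rotenone-sensitive fraction) and I/V: A340, and RCC II: A600, each every 1 min for 6 min; RCC III/IV: A550 every 10 s for 2 min. Activities relative to DMSO control set as 1.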"}, "RCC I": {"test_system": "RCC I", "assay": "RCC I activity in submitochondrial particles", "assay_type": "biochemical, rat", "design": "key to RCC I at 10XCmax / RCC I at 100XCmax / RCC I at 50XCmax / RCC I at 30XCmax / RCC I at 20XCmax: activity relative to DMSO-treated controls (control set as 1 = 100%)", "settings": "10XCmax; DMSO treated samples set as 1", "method_in_brief": "as §1"}, "[1]": {"test_system": "isolated rat liver mitochondria", "assay": "Mitochondrial oxygen consumption (glutamate/malate or succinate driven, state 4 and state 3)", "assay_type": "biochemical", "settings": "DMSO treated samples set as 1", "method_in_brief": "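Rat liver mitochondria (1 mg/ml protein) exposed 5 min to kinase inhibitors in 0.1% DMSO, then O2 consumption measured by Clark-type electrode with glutamate/malate or succinate (state 4), ADP added after 3 min (state 3). Rates normalized to 0.1% DMSO controls set to 1.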"}, "[2]": {"test_system": "isolated rat liver mitochondria", "assay": "Mitochondrial inner membrane potential (MMP), Rhodamine 123", "assay_type": "biochemical", "settings": "difference in signal between KI and DMSO treated samples at the end of experiments", "source_text": "Fig. 3 KI effects on mitochondrial inner membrane potential (MMP). […] In a, c, data are means and standard derivations from three separate experiments. *p < 0.05 as compared to DMSO-treated samples at the end of experiments. In b, data are means of two independent experiments"}, "[3]": {"settings": "human therapeutic maximal blood concentration, ref product labeling, cited from earlier work"}, "RCC V": {"test_system": "RCC V", "assay": "RCC V activity in submitochondrial particles", "assay_type": "biochemical, rat", "settings": "DMSO treated samples set as 1", "method_in_brief": "as §1"}, "RCC III": {"test_system": "RCC III", "assay": "RCC III activity in submitochondrial particles", "assay_type": "biochemical, rat", "design": "key to RCC III at 100XCmax: activity relative to DMSO-treated controls (control set as 1 = 100%)", "settings": "100XCmax", "method_in_brief": "as §1"}, "[4]": {"test_system": "isolated rat liver mitochondria", "settings": "positive control alamethicin treated samples"}, "[5]": {"test_system": "isolated rat liver mitochondria", "assay": "Mitochondrial ROS production (CM-H2DCFDA)", "settings": "DMSO treated samples set as 1"}},
  "data": [
    {"smiles": "CC(=O)c1c(C)c2cnc(Nc3ccc(N4CCNCC4)cn3)nc2n(C2CCCC2)c1=O.Cl", "note": "[palbociclib hydrochloride]", "values": [
      {"measurement": "RCC II at 1.0XCmax", "setting": "RCC II; 1.0XCmax", "result": 0},
      {"measurement": "RCC II at 2.5XCmax", "setting": "RCC II; 2.5XCmax", "result": 0},
      {"measurement": "RCC II at 5XCmax", "setting": "RCC II; 5XCmax", "result": 0},
      {"measurement": "RCC II at 10XCmax", "setting": "RCC II; 10XCmax", "result": 0},
      {"measurement": "RCC II at 20XCmax", "setting": "RCC II; 20XCmax", "result": 0},
      {"measurement": "RCC II at 30XCmax", "setting": "RCC II; 30XCmax", "result": 0},
      {"measurement": "RCC II at 50XCmax", "setting": "RCC II; 50XCmax", "result": 0},
      {"measurement": "RCC II at 100XCmax", "setting": "RCC II; 100XCmax", "result": 0},
      {"measurement": "RCC I at 10XCmax", "setting": "RCC I", "result": 0},
      {"measurement": "State 3 respiration driven by glutamate/malate at 1XCmax", "setting": "[1]; 1XCmax", "result": 0},
      {"measurement": "State 3 respiration driven by succinate at 1XCmax", "setting": "[1]; 1XCmax", "result": 0},
      {"measurement": "State 4 respiration driven by glutamate/malate at 1XCmax", "setting": "[1]; 1XCmax", "result": 0},
      {"measurement": "State 4 respiration driven by succinate at 1XCmax", "setting": "[1]; 1XCmax", "result": 0},
      {"measurement": "State 3 respiration driven by glutamate/malate at 2.5XCmax", "setting": "[1]; 2.5XCmax", "result": 0},
      {"measurement": "State 3 respiration driven by succinate at 2.5XCmax", "setting": "[1]; 2.5XCmax", "result": 0},
      {"measurement": "State 4 respiration driven by glutamate/malate at 2.5XCmax", "setting": "[1]; 2.5XCmax", "result": 0},
      {"measurement": "State 4 respiration driven by succinate at 2.5XCmax", "setting": "[1]; 2.5XCmax", "result": 0},
      {"measurement": "State 3 respiration driven by glutamate/malate at 5XCmax", "setting": "[1]; 5XCmax", "result": 0},
      {"measurement": "State 3 respiration driven by succinate at 5XCmax", "setting": "[1]; 5XCmax", "result": 0},
      {"measurement": "State 4 respiration driven by glutamate/malate at 5XCmax", "setting": "[1]; 5XCmax", "result": 0},
      {"measurement": "State 4 respiration driven by succinate at 5XCmax", "setting": "[1]; 5XCmax", "result": 0},
      {"measurement": "State 3 respiration driven by glutamate/malate at 10XCmax", "setting": "[1]; 10XCmax", "result": 0},
      {"measurement": "State 3 respiration driven by succinate at 10XCmax", "setting": "[1]; 10XCmax", "result": 0},
      {"measurement": "State 4 respiration driven by glutamate/malate at 10XCmax", "setting": "[1]; 10XCmax", "result": 0},
      {"measurement": "State 4 respiration driven by succinate at 10XCmax", "setting": "[1]; 10XCmax", "result": 0},
      {"measurement": "State 3 respiration driven by glutamate/malate at 20XCmax", "setting": "[1]; 20XCmax", "result": 0},
      {"measurement": "State 3 respiration driven by succinate at 20XCmax", "setting": "[1]; 20XCmax", "result": 0},
      {"measurement": "State 4 respiration driven by glutamate/malate at 20XCmax", "setting": "[1]; 20XCmax", "result": 0},
      {"measurement": "State 4 respiration driven by succinate at 20XCmax", "setting": "[1]; 20XCmax", "result": 0},
      {"measurement": "State 3 respiration driven by glutamate/malate at 30XCmax", "setting": "[1]; 30XCmax", "result": 0},
      {"measurement": "State 3 respiration driven by succinate at 30XCmax", "setting": "[1]; 30XCmax", "result": 0},
      {"measurement": "State 4 respiration driven by glutamate/malate at 30XCmax", "setting": "[1]; 30XCmax", "result": 0},
      {"measurement": "State 4 respiration driven by succinate at 30XCmax", "setting": "[1]; 30XCmax", "result": 0},
      {"measurement": "State 3 respiration driven by glutamate/malate at 50XCmax", "setting": "[1]; 50XCmax", "result": 0},
      {"measurement": "State 3 respiration driven by succinate at 50XCmax", "setting": "[1]; 50XCmax", "result": 0},
      {"measurement": "State 4 respiration driven by glutamate/malate at 50XCmax", "setting": "[1]; 50XCmax", "result": 0},
      {"measurement": "State 4 respiration driven by succinate at 50XCmax", "setting": "[1]; 50XCmax", "result": 0},
      {"measurement": "State 3 respiration driven by glutamate/malate at 100XCmax", "setting": "[1]; 100XCmax", "result": 0},
      {"measurement": "State 3 respiration driven by succinate at 100XCmax", "setting": "[1]; 100XCmax", "result": 0},
      {"measurement": "State 4 respiration driven by glutamate/malate at 100XCmax", "setting": "[1]; 100XCmax", "result": 0},
      {"measurement": "State 4 respiration driven by succinate at 100XCmax", "setting": "[1]; 100XCmax", "result": 0},
      {"measurement": "MMP measured by Rhodamine 123 at 1XCmax", "setting": "[2]; 1XCmax", "result": 0},
      {"measurement": "MMP measured by Rhodamine 123 at 2.5XCmax", "setting": "[2]; 2.5XCmax", "result": 0},
      {"measurement": "MMP measured by Rhodamine 123 at 5XCmax", "setting": "[2]; 5XCmax", "result": 0},
      {"measurement": "MMP measured by Rhodamine 123 at 10XCmax", "setting": "[2]; 10XCmax", "result": 0},
      {"measurement": "MMP measured by Rhodamine 123 at 20XCmax", "setting": "[2]; 20XCmax", "result": 0},
      {"measurement": "MMP measured by Rhodamine 123 at 30XCmax", "setting": "[2]; 30XCmax", "result": 0},
      {"measurement": "MMP measured by Rhodamine 123 at 50XCmax", "setting": "[2]; 50XCmax", "result": 0},
      {"measurement": "MMP measured by Rhodamine 123 at 100XCmax", "setting": "[2]; 100XCmax", "result": 0},
      {"measurement": "Cmax (ng or µg/ml)", "setting": "[3]", "result": 0.116, "unit": "µg/mL"},
      {"measurement": "Cmax", "setting": "[3]; read-out: Cmax at µM", "result": 0.24, "unit": "µM"},
      {"measurement": "RCC V at 5XCmax", "setting": "RCC V; 5XCmax", "result": 0},
      {"measurement": "RCC V at 50XCmax", "setting": "RCC V; 50XCmax", "result": 0},
      {"measurement": "RCC III at 100XCmax", "setting": "RCC III", "result": 0},
      {"measurement": "Cytochrome c release 1XCmax", "setting": "[4]; 1XCmax", "result": 0},
      {"measurement": "Cytochrome c release 2.5XCmax", "setting": "[4]; 2.5XCmax", "result": 0},
      {"measurement": "Cytochrome c release 5XCmax", "setting": "[4]; 5XCmax", "result": 0},
      {"measurement": "Cytochrome c release 10XCmax", "setting": "[4]; 10XCmax", "result": 0},
      {"measurement": "Cytochrome c release 20XCmax", "setting": "[4]; 20XCmax", "result": 0},
      {"measurement": "Cytochrome c release 30XCmax", "setting": "[4]; 30XCmax", "result": 0},
      {"measurement": "Cytochrome c release 50XCmax", "setting": "[4]; 50XCmax", "result": 0},
      {"measurement": "Cytochrome c release 100XCmax", "setting": "[4]; 100XCmax", "result": 0},
      {"measurement": "ROS measured by CM-H2DCFDA at 1XCmax", "setting": "[5]; 1XCmax", "result": 0},
      {"measurement": "ROS measured by CM-H2DCFDA at 2.5XCmax", "setting": "[5]; 2.5XCmax", "result": 0},
      {"measurement": "ROS measured by CM-H2DCFDA at 5XCmax", "setting": "[5]; 5XCmax", "result": 0},
      {"measurement": "ROS measured by CM-H2DCFDA at 10XCmax", "setting": "[5]; 10XCmax", "result": 0},
      {"measurement": "ROS measured by CM-H2DCFDA at 20XCmax", "setting": "[5]; 20XCmax", "result": 0},
      {"measurement": "ROS measured by CM-H2DCFDA at 30XCmax", "setting": "[5]; 30XCmax", "result": 0},
      {"measurement": "ROS measured by CM-H2DCFDA at 50XCmax", "setting": "[5]; 50XCmax", "result": 0},
      {"measurement": "ROS measured by CM-H2DCFDA at 100XCmax", "setting": "[5]; 100XCmax", "result": 0}
    ]}
  ]
}
